Experimental data from PubChem BioAssay (NCI).
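Interpolation was linear, between the two tested concentrations surrounding the appropriate level; five concentrations were tested over 48 hours in 96-well plates. TGI is the concentration that stops growth completely.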

Columns and labels:
Assay in all cases: DTP human tumour cell line panel, 48 h
[1] = tested on: 786-0 renal
[2] = tested on: A498 renal
[3] = tested on: A549 NSCLC
[4] = tested on: ACHN renal
[5] = tested on: BT-549 breast
[6] = tested on: CAKI-1 renal
[7] = tested on: CCRF-CEM leukemia
[8] = tested on: COLO 205 colon
[9] = tested on: DU-145 prostate
[10] = tested on: EKVX NSCLC
[11] = tested on: HCT-116 colon
[12] = tested on: HCT-15 colon
[13] = tested on: HL-60(TB) leukemia
[14] = tested on: HOP-62 NSCLC
[15] = tested on: HOP-92 NSCLC
[16] = tested on: HS 578T breast
[17] = tested on: HT29 colon
[18] = tested on: IGROV1 ovarian
[19] = tested on: K-562 leukemia
[20] = tested on: KM12 colon
[21] = tested on: LOX IMVI melanoma
[22] = tested on: M14 melanoma
[23] = tested on: MALME-3M melanoma
[24] = tested on: MCF7 breast
[25] = tested on: MDA-MB-231 breast
[26] = tested on: MDA-MB-435
[27] = tested on: MOLT-4 leukemia
[28] = tested on: NCI-H226 lung
[29] = tested on: NCI-H23 lung
[30] = tested on: NCI-H460 lung
[31] = tested on: NCI/ADR-RES ovarian
[32] = tested on: OVCAR-3 ovarian
[33] = tested on: OVCAR-4 ovarian
[34] = tested on: OVCAR-5 ovarian
[35] = tested on: OVCAR-8 ovarian
[36] = tested on: PC-3 prostate
[37] = tested on: RPMI-8226 leukemia
[38] = tested on: RXF 393 renal
[39] = tested on: SF-268 CNS
[40] = tested on: SF-295 CNS
[41] = tested on: SF-539 CNS
[42] = tested on: SK-MEL-2 melanoma
[43] = tested on: SK-MEL-28 melanoma
[44] = tested on: SK-MEL-5 melanoma
[45] = tested on: SK-OV-3 ovarian
[46] = tested on: SN12C renal
[47] = tested on: SNB-19 CNS
[48] = tested on: SNB-75 CNS
[49] = tested on: SW-620 colon
[50] = tested on: T-47D breast
[51] = tested on: TK-10 renal
[52] = tested on: U251 CNS
[53] = tested on: UACC-62 melanoma
[54] = tested on: UO-31 renal
[55] = tested on: HCC-2998 colon
[56] = tested on: NCI-H522 lung
[57] = tested on: UACC-257 melanoma

For CCCOc1ccc2sc(NC(=O)c3cc([N+](=O)[O-])cc([N+](=O)[O-])c3)nc2c1, the TGI [1] was > 100 µM, the TGI [2] was 76.9 µM and the TGI [3] was > 100 µM. The TGI [4] was > 100 µM, the TGI [5] was > 100 µM and the TGI [6] was > 100 µM. The TGI [7] was > 100 µM, the TGI [8] was > 100 µM and the TGI [9] was > 100 µM. For the same compound, the TGI [10] was > 100 µM, the TGI [11] was 89.7 µM and the TGI [12] was > 100 µM. For the same compound, the TGI [13] was > 100 µM, the TGI [14] was > 100 µM and the TGI [15] was 49.6 µM. For the same compound, the TGI [16] was 39.4 µM, the TGI [17] was > 100 µM and the TGI [18] was 35.7 µM. For the same compound, the TGI [19] was > 100 µM, the TGI [20] was > 100 µM and the TGI [21] was 68.3 µM. The TGI [22] was > 100 µM, the TGI [23] was 79.3 µM and the TGI [24] was > 100 µM. For the same compound, the TGI [25] was > 100 µM, the TGI [26] was > 100 µM and the TGI [27] was > 100 µM. For the same compound, the TGI [28] was > 100 µM, the TGI [29] was 82.3 µM and the TGI [30] was > 100 µM. It also gave a TGI [31] of 61.5 µM, a TGI [32] of 68.3 µM and a TGI [33] of 58.8 µM. For the same compound, the TGI [34] was > 100 µM, the TGI [35] was > 100 µM and the TGI [36] was > 100 µM. The TGI [37] was > 100 µM, the TGI [38] was > 100 µM and the TGI [39] was > 100 µM. The TGI [40] was > 100 µM, the TGI [41] was > 100 µM and the TGI [42] was > 100 µM. The TGI [43] was > 100 µM, the TGI [44] was 48.8 µM and the TGI [45] was > 100 µM. The TGI [46] was > 100 µM, the TGI [47] was > 100 µM and the TGI [48] was 83.1 µM. For the same compound, the TGI [49] was > 100 µM, the TGI [50] was > 100 µM and the TGI [51] was > 100 µM. For the same compound, the TGI [52] was > 100 µM, the TGI [53] was > 100 µM and the TGI [54] was 57.7 µM.

With NC(N)=Nc1ccc(CC(N)C(=O)NCC(=O)C(CC(=O)O)c2ncc(NC(=O)C(F)(F)F)o2)cc1 (stereo unspecified) the TGI [1] was > 25 µM, the TGI [2] was > 25 µM and the TGI [3] was > 25 µM. The TGI [4] was > 25 µM, the TGI [5] was > 25 µM and the TGI [6] was > 25 µM. For the same compound, the TGI [7] was > 25 µM, the TGI [8] was > 25 µM and the TGI [9] was > 25 µM. The TGI [10] was > 25 µM, the TGI [55] was > 25 µM and the TGI [11] was > 25 µM. The TGI [12] was > 25 µM, the TGI [13] was > 25 µM and the TGI [14] was > 25 µM. For the same compound, the TGI [16] was > 25 µM, the TGI [17] was > 25 µM and the TGI [18] was > 25 µM. The TGI [20] was > 25 µM, the TGI [21] was > 25 µM and the TGI [22] was > 25 µM. For the same compound, the TGI [23] was > 25 µM, the TGI [24] was > 25 µM and the TGI [25] was > 25 µM. The TGI [26] was > 25 µM, the TGI [28] was > 25 µM and the TGI [29] was > 25 µM. For the same compound, the TGI [30] was > 25 µM, the TGI [56] was > 25 µM and the TGI [31] was > 25 µM. The TGI [32] was > 25 µM, the TGI [33] was > 25 µM and the TGI [34] was > 25 µM. The TGI [35] was > 25 µM, the TGI [36] was > 25 µM and the TGI [37] was > 25 µM. The TGI [38] was > 25 µM, the TGI [39] was > 25 µM and the TGI [40] was > 25 µM. For the same compound, the TGI [41] was > 25 µM, the TGI [42] was > 25 µM and the TGI [43] was > 25 µM. The TGI [44] was > 25 µM, the TGI [45] was > 25 µM and the TGI [46] was > 25 µM. For the same compound, the TGI [48] was > 25 µM, the TGI [49] was > 25 µM and the TGI [50] was > 25 µM. For the same compound, the TGI [51] was > 25 µM, the TGI [52] was > 25 µM and the TGI [57] was > 25 µM. The TGI [53] was > 25 µM and the TGI [54] was > 25 µM.

In the case of COC(=O)CCCC(=O)C1=Nc2ccccc2CN(c2ccc(Cl)cc2)N1, the TGI [1] is reported as > 100 µM, the TGI [2] is reported as > 100 µM and the TGI [3] is reported as > 100 µM. For the same compound, the TGI [4] was > 100 µM, the TGI [5] was > 100 µM and the TGI [6] was > 100 µM. The TGI [7] was > 100 µM, the TGI [8] was > 100 µM and the TGI [9] was > 100 µM. For the same compound, the TGI [10] was > 100 µM, the TGI [55] was > 100 µM and the TGI [11] was > 100 µM. For the same compound, the TGI [12] was > 100 µM, the TGI [14] was > 100 µM and the TGI [15] was > 100 µM. The TGI [16] was > 100 µM, the TGI [17] was > 100 µM and the TGI [18] was > 100 µM. For the same compound, the TGI [19] was > 100 µM, the TGI [20] was > 100 µM and the TGI [21] was > 100 µM. For the same compound, the TGI [22] was > 100 µM, the TGI [24] was > 100 µM and the TGI [25] was > 100 µM. The TGI [26] was > 100 µM, the TGI [27] was > 100 µM and the TGI [28] was > 100 µM. The TGI [29] was > 100 µM, the TGI [56] was > 100 µM and the TGI [31] was > 100 µM. For the same compound, the TGI [32] was > 100 µM, the TGI [33] was 87.7 µM and the TGI [34] was > 100 µM. For the same compound, the TGI [35] was > 100 µM, the TGI [36] was > 100 µM and the TGI [37] was > 100 µM. The TGI [38] was > 100 µM, the TGI [39] was > 100 µM and the TGI [40] was > 100 µM. For the same compound, the TGI [41] was > 100 µM, the TGI [42] was > 100 µM and the TGI [43] was > 100 µM. The TGI [44] was > 100 µM, the TGI [45] was > 100 µM and the TGI [46] was > 100 µM. For the same compound, the TGI [47] was > 100 µM, the TGI [48] was > 100 µM and the TGI [49] was > 100 µM. The TGI [50] was 49.5 µM, the TGI [51] was > 100 µM and the TGI [52] was > 100 µM. The TGI [57] was > 100 µM, the TGI [53] was > 100 µM and the TGI [54] was > 100 µM.
